Test results published in ChEMBL document CHEMBL1140309, “p53 Activation by small molecules: application in oncology” (J Med Chem, 2005).
pIC50: −log10 of the molar value.

Target: Tumour suppressor p53/oncoprotein Mdm2 (Homo sapiens, UniProt P04637+Q00987)
Assay: Inhibitory activity against MDM2 (murine double minute-2 gene) binding to p53
Format: protein assay

Chain of Tumour suppressor p53/oncoprotein Mdm2 (P04637 whole entry): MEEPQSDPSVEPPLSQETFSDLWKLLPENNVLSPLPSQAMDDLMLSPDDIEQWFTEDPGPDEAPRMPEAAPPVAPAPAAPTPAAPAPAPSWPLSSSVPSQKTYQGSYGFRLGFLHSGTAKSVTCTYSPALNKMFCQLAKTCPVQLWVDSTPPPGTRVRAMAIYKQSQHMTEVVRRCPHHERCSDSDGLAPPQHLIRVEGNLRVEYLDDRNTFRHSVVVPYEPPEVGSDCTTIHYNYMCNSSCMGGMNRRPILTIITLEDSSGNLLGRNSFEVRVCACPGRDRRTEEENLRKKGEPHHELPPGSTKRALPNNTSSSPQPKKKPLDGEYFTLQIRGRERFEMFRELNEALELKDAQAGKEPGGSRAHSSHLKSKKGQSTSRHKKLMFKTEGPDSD
Chain of Tumour suppressor p53/oncoprotein Mdm2 (Q00987 whole entry): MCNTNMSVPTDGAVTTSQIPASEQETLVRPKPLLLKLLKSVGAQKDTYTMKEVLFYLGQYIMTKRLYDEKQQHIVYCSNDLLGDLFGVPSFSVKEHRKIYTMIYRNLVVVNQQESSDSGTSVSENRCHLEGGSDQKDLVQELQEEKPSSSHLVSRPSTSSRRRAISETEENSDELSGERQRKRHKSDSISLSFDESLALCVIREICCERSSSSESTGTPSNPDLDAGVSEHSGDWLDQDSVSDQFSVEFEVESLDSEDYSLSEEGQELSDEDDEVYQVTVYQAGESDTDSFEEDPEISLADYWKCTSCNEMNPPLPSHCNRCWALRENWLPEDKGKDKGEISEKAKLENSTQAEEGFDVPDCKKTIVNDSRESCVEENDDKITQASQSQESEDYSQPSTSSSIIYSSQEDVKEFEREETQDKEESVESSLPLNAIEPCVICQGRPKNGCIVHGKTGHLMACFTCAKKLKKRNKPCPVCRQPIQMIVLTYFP

pIC50: 4.52
SMILES: CC(C)Oc1ccc(C(=O)NS(=O)(=O)c2ccc(NN=C3C(=O)N(c4ccccc4)N(c4ccccc4)C3=O)cc2)cc1
